For data set [1] the following is noted: in vivo, po, 6 mg. The protocol: The study compared various dose routes: sublingual (SL), per oral tablet (PO), subcutaneous (SC) and intravenous (IV). […] An Oral Irritation assessment was performed (SL film group): Predose (0) and 24 hr postdose by Draize scoring.
For data set [2] the following is noted: PBS (pH 7.4), n=6; cited from earlier work.

Where two headings read alike, the source gives them in different places.

Turning to `CNC[C@H](O)c1ccc(O)c(O)c1` [Epinephrine Bitartrate], the average flux reads like this: (30 min, 16 mg/mL) 0 μg/cm2*min; (45 min, 16 mg/mL) 0.2604 μg/cm2*min; (60 min, 16 mg/mL) 0.3125 μg/cm2*min; (120 min, 16 mg/mL) 0.6727 μg/cm2*min; (180 min, 16 mg/mL) 1.076 μg/cm2*min; (240 min, 16 mg/mL) 1.029 μg/cm2*min. Further, the average flux is, setting by setting: (300 min, 16 mg/mL) 1.25 μg/cm2*min; (360 min, 16 mg/mL) 1.385 μg/cm2*min. The “Average Steady State flux” value is, setting by setting: (360 min, 4 mg/mL) 0.167 ug/cm2*min; (360 min, 8 mg/mL) 0.466 ug/cm2*min; (360 min, 16 mg/mL) 1.317 ug/cm2*min; (360 min, 100 mg/mL) 2.942 ug/cm2*min.

For the compound `CNC[C@H](O)c1ccc(OC(=O)C(C)(C)C)c(OC(=O)C(C)(C)C)c1` (racemic) [dipivefrin], in data set [1], the “DIPI Tmax” value amounted to 0 h.

On to `CC(C)NCC(O)COc1cccc2ccccc12` (centres unmarked) [PP], for which the “C0 of saturated solution” value in data set [2] is 588005 ± 5852 µg/mL.
